From patent publication US20130071328A1, “Propynoic Acid Carbamoyl Methyl-Amides and Pharmaceutical Compositions and Methods Based Thereon” (UNIVERSITY OF SOUTHERN CALIFORNIA, priority 2011, published 2013)

Tests used:
[1] = system: HEY ovarian cancer cell line; test: Cytotoxicity assay, HEY; format: cell-based; conditions: Homo sapiens
From the text: (§1) The human breast cancer cell line MDA-MB-435 and the colon cancer cell line HT29 were purchased from the American Type Cell Culture (Manassas, Va.). Colon cancer cell lines HCT116 p53^+/+ and HCT116 p53^−/− were kindly provided by Dr. Bert Vogelstein (Johns Hopkins Medical Institutions, Baltimore, Md.). The human ovarian carcinoma cell line (HEY), naturally resistant to cisplatin (CDDP), was kindly provided by Dr. Louis Dubeau (USC Norris Cancer Center). The bladder cancer cell lines were kindly provided by Dr. Richard Cote (USC Keck School of Medicine). Cells were maintained as monolayer cultures in the appropriate media: RPMI-1640 (HT29, HCT116 p53^+/+, HCT116 p53^−/−, and HEY cell lines) or DMEM (MDA-MB-435 and UMUC3 cell lines) supplemented with 10% fetal bovine serum (FBS) (HyClone, Road Logan, Utah) at 37° C. in a humidified atmosphere of 5% CO2. To remove the adherent cells from the flask for subculture and counting, cells were washed with PBS without calcium or magnesium, incubated with a small volume of 1×trypsin-EDTA solution (Sigma-Aldrich, St. Louis, Mo.) for 5 min, resuspended with fresh culture medium, and centrifuged at 1200 rpm for 5 min. All experiments were performed using cells in exponential growth phase. Cells were routinely checked for Mycoplasma contamination using PlasmaTest kit (InvivoGen, San Diego, Calif.).
(§2) Cytotoxicity was assessed by MTT assay as described previously. 43 In brief, cells were seeded in 96-well microtiter plates and allowed to attach overnight. Cells were subsequently treated with continuous exposure to corresponding drugs for 72 h. At the end of treatments, an MTT solution (at a final concentration of 0.5 mg/mL) was added to each well, and cells were incubated for 4 h at 37° C. After removal of the supernatant, DMSO was added, and the absorbance was read at 570 nm. All assays were done in triplicate. The IC50 was then determined for each drug from a plot of log(drug concentration) versus percentage of cells killed.

[2] = system: HCT116 p53^−/− colon cancer cell line; test: MTT cytotoxicity assay, HCT116 p53-/-; format: cell-based; conditions: Homo sapiens, HCT-116, 72 h exposure
From the text: as §1, §2

[3] = system: MDA-MB-435 breast cancer cell line; test: MTT cytotoxicity assay, MDA-MB-435; format: cell-based, human; conditions: Homo sapiens, MDA-MB-435, 72 h, 72 h exposure
From the text: as §1, §2

[4] = system: HT29 colon cancer cell line; test: MTT cytotoxicity assay, HT29; format: cell-based; conditions: Homo sapiens, HT-29, 72 h exposure
From the text: as §1, §2

[5] = system: UMUC3 bladder cancer cell line; test: MTT cytotoxicity assay, UMUC3; format: cell-based; conditions: Homo sapiens, 72 h exposure
From the text: as §1, §2

[6] = system: 5637 bladder cancer cell line; test: MTT cytotoxicity assay, 5637; format: cell-based, human; conditions: Homo sapiens, 72 h exposure
From the text: as §1, §2

[7] = system: doxorubicin-resistant NCI/ADR-RES ovarian cancer cell line; test: Cytotoxicity assay, NCI/ADR-RES; format: cell-based; conditions: Homo sapiens
Protocol: as §2

[8] = system: HCT116 p53^+/+ colon cancer cell line; test: MTT cytotoxicity assay, HCT116 p53+/+; format: cell-based; conditions: Homo sapiens, HCT-116, 72 h exposure
From the text: as §1, §2

[9] = system: OVCAR8 ovarian cancer cell line; test: In vitro cytotoxicity, OVCAR8; format: cell-based; conditions: Homo sapiens, OVCAR-8; Table 4, ovarian cancer panel
Protocol: as §2

[10] = system: OVCAR3 ovarian cancer cell line; test: In vitro cytotoxicity, OVCAR3; format: cell-based; conditions: Homo sapiens, OVCAR-3; Table 4, ovarian cancer panel
Protocol: as §2

Row | Compound | IC50 ([1]; MTT, 72 h exposure (Table 2)) [µM] | IC50 [2] [µM] | IC50 [3] [µM] | IC50 [4] [µM] | IC50 [5] [µM] | IC50 [6] [µM] | IC50 ([7]; MTT, 72 h exposure (Table 2)) [µM] | IC50 [8] [µM] | IC50 [9] [µM] | IC50 ([7]; Table 4, ovarian cancer panel) [µM] | IC50 [10] [µM] | IC50 ([1]; Table 4, ovarian cancer panel) [µM]
1 | C#CC(=O)N(c1ccc(OC)c(OC)c1)C(C(=O)NC1CCCC1)c1cccs1 (stereo not shown) [Compound 3, N-[2-(Cyclopentylamino)-2-oxo-1-thien-2-ylethyl]-N-(3,4-dimethoxyphenyl)Propynamide] | 3.4 ± 1.5 | 9.6 ± 4.9 | 2 ± 0.1 | 5.5 ± 4.2 | > 20 | 2 ± 0.7 | 0.9 ± 0.8 | 7.7 ± 1.9 | – | – | – | –
2 | C#CC(=O)N(c1ccc(OC)cc1OC)C(C(=O)NC1CCCC1)c1cccs1 (stereo not shown) [Compound 5, N-[2-(Cyclopentylamino)-2-oxo-1-thien-2-ylethyl]-N-(2,4-dimethoxyphenyl)Propynamide] | 4.1 ± 3.4 | 7 ± 0.7 | 1.7 ± 0.5 | 2.3 ± 0.3 | > 20 | 1.7 ± 0.8 | 0.4 | 6.9 ± 0.6 | – | – | – | –
3 | C#CC(=O)N(c1cccc(OC)c1)C(C(=O)NC1CCCC1)c1cccs1 (stereo not shown) [Compound 6, N-[2-(Cyclopentylamino)-2-oxo-1-thien-2-ylethyl]-N-(3-methoxyphenyl)Propynamide] | 1.9 ± 0.7 | 5.6 ± 0.8 | – | 2.3 ± 0.3 | 6.9 ± 1.2 | 0.3 | 0.3 | 7.2 ± 0.2 | – | – | – | –
4 | C#CC(=O)N(c1cc(OC)ccc1OC)C(C(=O)NC1CCCC1)c1cccs1 (stereo not shown) [Compound 7, N-[2-(Cyclopentylamino)-2-oxo-1-thien-2-ylethyl]-N-(2,5-dimethoxyphenyl)Propynamide] | 1.5 ± 1.1 | 4.7 ± 2.3 | 0.5 ± 0.3 | 1.6 ± 1 | 5.7 ± 1.5 | 0.3 | 0.3 | 5.7 ± 0.6 | – | – | – | –
5 | C#CC(=O)N(c1ccc2c(c1)OCCO2)C(C(=O)NC1CCCC1)c1ccccc1 (stereo not shown) [Compound 8, N-[2-(Cyclopentylamino)-2-oxo-1-phenylethyl]-N-(2,3-dihydro-1,4-benzodioxin-6-yl)Propynamide] | 4.1 ± 3.4 | > 20 | 1.8 ± 0.6 | 3.2 ± 1.2 | > 20 | 1.9 ± 0.6 | 0.3 | 17.3 ± 1.1 | – | – | – | –
6 | C#CC(=O)N(Cc1ccco1)C(C(=O)NC1CCCC1)c1ccccc1F (stereo not shown) [Compound 10, N-[2-(Cyclopentylamino)-1-(2-fluorophenyl)-2-oxoethyl]-N-(2-furylmethyl)Propynamide] | 4.3 ± 3.9 | 13 ± 2.8 | 1.7 ± 0.6 | > 10 | > 20 | 2.9 ± 0.8 | 1.2 ± 0.4 | 10.5 | – | – | – | –
7 | C#CC(=O)N(c1cc(OC)cc(OC)c1)C(C(=O)NC1CCCC1)c1ccc(OC)cc1 (stereo not shown) [Compound 11, N-[2-(Cyclopentylamino)-1-(4-methoxyphenyl)-2-oxoethyl]-N-(3,5-dimethoxyphenyl)Propynamide] | 2.3 ± 0.4 | > 20 | 2.4 ± 0.1 | 2.1 ± 0.4 | > 20 | 1.9 ± 0.6 | 0.3 | 15 | – | – | – | –
8 | C#CC(=O)N(c1cccc(C(F)(F)F)c1)C(C(=O)NC1CCCC1)c1ccc(F)cc1 (stereo not shown) [Compound 12, N-[2-(Cyclopentylamino)-1-(4-fluorophenyl)-2-oxoethyl]-N-[3-(trifluoromethyl)phenyl]Propynamide] | 2.4 ± 0.2 | 6.9 ± 0.6 | 5.2 ± 1.2 | 4.8 ± 3.2 | 8 ± 1.4 | 0.5 ± 0.3 | 0.4 | 7.5 ± 0.7 | – | – | – | –
9 | C#CC(=O)N(c1cccc(C(F)(F)F)c1)C(C(=O)NC1CCCCC1)c1cccs1 (stereo not shown) [Compound 13, N-[2-(Cyclohexylamino)-2-oxo-1-thien-2-ylethyl]-N-[3-(trifluoromethyl)phenyl]Propynamide] | 5.2 ± 3.6 | 10.4 ± 0.2 | 6.9 ± 0.8 | 6 ± 1.4 | > 20 | 1.6 ± 0.7 | 0.4 | 8.3 ± 1.1 | – | – | – | –
10 | C#CC(=O)N(c1ccc2ccccc2c1)C(C(=O)NC1CCCC1)c1ccccc1 (stereo not shown) [Compound 14, N-[2-(Cyclopentylamino)-2-oxo-1-phenylethyl]-N-(2-naphthyl)Propynamide] | 1.7 ± 1.1 | 7.4 ± 0.8 | 7.3 | 4.9 ± 3.4 | > 20 | 0.5 ± 0.3 | 0.3 | 6.8 ± 1.8 | – | – | – | –
11 | C#CC(=O)N(Cc1ccc2c(c1)OCO2)C(C(=O)NCc1ccccc1)c1ccccc1F (stereo not shown) [Compound 15, N-(1,3-Benzodioxol-5-ylmethyl)-N-[2-(benzylamino)-1-(2-fluorophenyl)-2-oxoethyl]Propynamide] | > 10 | > 20 | > 10 | > 10 | > 20 | 2.8 ± 1.1 | 1.3 ± 1 | > 10 | – | – | – | –
12 | C#CC(=O)N(c1cccc(C(F)(F)F)c1)C(C(=O)NCc1ccccc1)c1cccs1 (stereo not shown) [Compound 16, N-[2-(Benzylamino)-2-oxo-1-thien-2-ylethyl]-N-[3-(trifluoromethyl)-phenyl]Propynamide] | 7.1 ± 2.6 | 16.1 ± 5.6 | 4.2 ± 3 | 7.3 ± 0.3 | > 20 | 1.2 ± 1.1 | 0.7 ± 0.6 | 9 ± 1.4 | – | – | – | –
13 | C#CC(=O)N(Cc1ccccc1Cl)C(C(=O)NC1CCCC1)c1ccccc1 (stereo not shown) [Compound 17, N-(2-Chlorobenzyl)-N-[2-(cyclopentylamino)-2-oxo-1-phenylethyl]Propynamide] | 5.8 ± 1.3 | 7.3 ± 1.4 | 8.2 ± 0.2 | 5.4 ± 3 | > 20 | 1.8 ± 0.1 | 2.2 ± 0.2 | 7.7 ± 0.5 | – | – | – | –
14 | C#CC(=O)N(c1ccccc1F)C(C(=O)NC1CCCCC1)c1ccccc1F (stereo not shown) [Compound 19, N-[2-(Cyclohexylamino)-1-(2-fluorophenyl)-2-oxoethyl]-N-(2-fluorophenyl)Propynamide] | 5.6 ± 2.1 | 10.1 ± 2.9 | 6.5 ± 2.1 | 7.7 ± 0.5 | > 20 | 2.1 | 0.4 ± 0.1 | 11.9 ± 0.1 | – | – | – | –
15 | C#CC(=O)N(c1ccc(-n2cnnn2)c(C)c1)C(C(=O)NCC(=O)OCC)c1ccccc1F (stereo not shown) [Compound 20] | – | – | – | – | – | – | – | – | 0.2 | 1.3 | – | –
16 | C#CC(=O)N(c1ccc(-n2cnnn2)c(C)c1)C(C(=O)NC1CCCC1)c1c(F)c(F)c(F)c(F)c1F (stereo not shown) [Compound 24] | – | – | – | – | – | – | – | – | 5 | 0.45 | 0.6 | –
17 | C#CC(=O)N(C)C(C(=O)NC1CCCC1)c1cccs1 (stereo not shown) [Compound 25] | – | – | – | – | – | – | – | – | 2.2 | 0.32 | 0.53 | –
18 | C#CC(=O)N(c1cccc(O)c1)C(C(=O)NC1CCCC1)c1cccs1 (stereo not shown) [Compound 26] | – | – | – | – | – | – | – | – | 2.2 | 0.32 | 1.5 | –
19 | C#CC(=O)N(c1cc(OC)c(OC)c(OC)c1)C(C(=O)NC1CCCC1)c1cccs1 (stereo not shown) [Compound 27] | – | – | – | – | – | – | – | – | 2.2 | 0.33 | 0.42 | –
20 | C#CC(=O)N(CC(=O)NC1CCCC1)c1ccc(OC)cc1OC [Compound 28] | – | – | – | – | – | – | – | – | 0.52 | 0.02 | 0.23 | –
21 | C#CC(=O)N(CC(N)=O)c1ccc(OC)cc1OC [Compound 29] | – | – | – | – | – | – | – | – | 0.5 ± 0.3 | – | – | –
22 | C#CC(=O)N(CC(=O)NC1CCCC1)c1ccc(-n2cnnn2)c(C)c1 [Compound 30] | – | – | – | – | – | – | – | – | 10 | 1.8 | 3 | –
23 | C#CC(=O)N(c1ccc(-n2cnnn2)c(C)c1)C(C(=O)NC1CCCC1)c1cccnc1 (stereo not shown) [Compound 31] | – | – | – | – | – | – | – | – | 1.5 | 2.5 | 2.5 | –
24 | C#CC(=O)N(c1ccc(O)cc1OC)C(C(=O)NCC(=O)OCC)c1cccs1 (stereo not shown) [Compound 40] | – | – | – | – | – | – | – | – | 10.4 ± 1.6 | 12.8 ± 3.8 | – | –
25 | C#CC(=O)N(c1ccc(OC)cc1OC)C(C(=O)NCC(=O)OCC)c1ccccc1 (stereo not shown) [Compound 41] | – | – | – | – | – | – | – | – | 0.4 ± 0.2 | – | – | –
26 | C#CC(=O)N(Cc1ccc(OC)cc1OC)C(C(=O)NCC(=O)OCC)c1ccccc1 (stereo not shown) [Compound 42] | – | – | – | – | – | – | – | – | 3.4 ± 0.4 | – | – | –
27 | C#CC(=O)N(c1ccc(OC)cc1OC)C(C(=O)NCC(=O)NCCN1CCOCC1)c1cccs1 (stereo not shown) [Compound 45] | – | – | – | – | – | – | – | – | 5 | > 10 | – | 0.32
